Laboratory results reported in ChEMBL document CHEMBL5696441 (Nat Chem Biol, 2011).
The source made the active and inactive calls. The rule behind the calls is not given here.

System: THP-1
Assay: Inhibition of ERK in human THP-1 cells assessed as CREB phosphorylation at Ser133 level at 4 uM preincubated for 30 mins in the presence of PMA stimulation for 1 hrs by western blot analysis
Format: cell-based

SMILES: C[S+]([O-])c1ccc(-c2nc(-c3ccc(F)cc3)c(-c3ccncc3)[nH]2)cc1 (stereo unspecified)
- inhibition: Active
